Source: publication PMC8162404, “Proteomimetic surface fragments distinguish targets by function” (Chemical Science, 2020)

Target: T1, CaM (Bos taurus, UniProt P62157)
T1 construct: made in house; host or cells: E. coli BL21 (DE3)
Test: Pull-down assay with immobilized protein and LSM libraries
Assay type: binding, bovine
Conditions: H12 library; 1:2 stoichiometry assumed; read-out: Surface mapping KD (apparent)
Description: Pull-down assays with immobilized test proteins and foldameric LSM libraries were carried out. Proteins were equilibrated with LSM probes, and equilibrium bound fractions (FB) were determined from the unbound fractions measured by HPLC-MS methods. Hits were corrected with background binding of the resin. The protocol allowed all binding events to equilibrate irrespective of affinity, specificity, and binding kinetics. This was essential to judge overall druggability and promiscuity. Importantly, the concentration of protein and the total concentration of foldameric LSMs were equimolar, which minimized competition between the probes. This experimental setup approximated independent binding of individual library members. Results were visualized as heat maps of dissociation constants (Fig. 3).
Pull-down assay and data analysis
Pull-down assay. LSM sublibraries were screened separately as previously described.(2) Experiments were performed in the following buffers: (i) 20 mM pH 7.4 HEPES, 150 mM NaCl, 5 mM CaCl2 for CaM; (ii) 50 mM pH 7.4 HEPES, 150 mM NaCl, 1 mM TCEP, 1 mM CaCl2 for S100 proteins; (iii) 20 mM pH 7.4 HEPES, 150 mM NaCl, 1 mM TCEP for Gal-1 and (iv) 20 mM pH 7.4 HEPES, 150 mM NaCl for RecQ-WH. Assays were performed in paper filter spin cups (Thermo Scientific) with sample volumes of 100 µl. Hexahistidine-tagged proteins were immobilized on previously washed Co-NTA resin (TALON, Takara Bio USA, Inc., […]
LSM sublibrary was added, in which each of the 64 library members were used at a concentration of 1 µM. Samples were incubated at room temperature for 30 min with shaking at 100 rpm. Then, samples were centrifuged at 1000 rpm for 2 min and washed with 100 µl pull-down buffer to remove unbound compounds.
The control experiments were performed using the same compounds and the resin but without the immobilized protein. In case of competitive assays, competitor peptides were added to LSM sublibrary samples in 200 µM final concentration. In the case of Gal-1, lactose (competitor) was used in a concentration of 10 mM. Experiments were performed at least twice. Mean […]
LC-MS methods and parameters. HPLC/ESI-MS analysis was used to characterize the samples from the pull-down assay. LC-MS analysis was performed with a Thermo Scientific Dionex UltiMate 3000 HPLC system interfaced to an LTQ ion trap mass spectrometer (Thermo Electron Corp., San Jose, CA, USA). Samples were injected onto an Aeris Widepore XB-C18 (250 x 4.6 mm) analytical HPLC column using gradient elution 5-80 % solution B during 25 minutes. For pull-down samples, eluent composition was 0.1% acetic acid in distilled water (Solution A) and 0.1% acetic acid in acetonitrile (solution B). Mass spectra were acquired in full scan mode from 200 to 2000 m/z range. For overlapping peaks, selective reaction monitoring (SRM) was […]
MS data analysis. Thermo Xcalibur 2.2 software was used for peak identification and integration. The majority of the foldameric fragments could be resolved independently via HPLC-MS/MS measurements based on molecular weight, MS fragmentation pattern and retention time. Peaks of some foldamers with β3-hIle or β3-hLeu in position R2 could not be resolved, these were integrated and averaged. In the processing method, each sample component was associated to a chromatographic peak based on previously identified mass (m/z) and retention time (ref (2) and Table S7-10). Using ICIS peak detection algorithm, the general detection and integration criteria were: smoothing points: 5, baseline window: 80, area noise factor: 5, peak noise factor: 10. Using these processing setups, all raw data files were reprocessed together and analyzed. Errors in peak identification during the automatic processing were corrected manually.
Calculation of the discussed parameters
1. Bound fractions (FB.) were calculated from the HPLC-MS intensity loss of the LSM probes compared to the control where no protein was immobilized to the resin: […]

SMILES | Kd
CC[C@H](C)[C@@H](CC(=O)N[C@H]1CCC[C@@H]1C(=O)N[C@H]1CCC[C@@H]1C(N)=O)NC(=O)[C@H]1CCC[C@@H]1NC(=O)[C@H]1CCC[C@@H]1NC(=O)C[C@H](CC(N)=O)NC(=O)[C@H]1CCC[C@@H]1NC(=O)[C@H]1CCC[C@@H]1N [H12 NI] | 214 µM
CC(C)C[C@@H](CC(=O)N[C@H]1CCC[C@@H]1C(=O)N[C@H]1CCC[C@@H]1C(N)=O)NC(=O)[C@H]1CCC[C@@H]1NC(=O)[C@H]1CCC[C@@H]1NC(=O)C[C@H](CC(N)=O)NC(=O)[C@H]1CCC[C@@H]1NC(=O)[C@H]1CCC[C@@H]1N [H12 NL] | 214 µM
CSCC[C@@H](CC(=O)N[C@H]1CCC[C@@H]1C(=O)N[C@H]1CCC[C@@H]1C(N)=O)NC(=O)[C@H]1CCC[C@@H]1NC(=O)[C@H]1CCC[C@@H]1NC(=O)C[C@H](CC(N)=O)NC(=O)[C@H]1CCC[C@@H]1NC(=O)[C@H]1CCC[C@@H]1N [H12 NM] | 378 µM
CC(C)[C@@H](CC(=O)N[C@H]1CCC[C@@H]1C(=O)N[C@H]1CCC[C@@H]1C(N)=O)NC(=O)[C@H]1CCC[C@@H]1NC(=O)[C@H]1CCC[C@@H]1NC(=O)C[C@H](CC(N)=O)NC(=O)[C@H]1CCC[C@@H]1NC(=O)[C@H]1CCC[C@@H]1N [H12 NV] | 460 µM
NC(=O)C[C@@H](CC(=O)N[C@H]1CCC[C@@H]1C(=O)N[C@H]1CCC[C@@H]1C(=O)N[C@H](CC(=O)N[C@H]1CCC[C@@H]1C(=O)N[C@H]1CCC[C@@H]1C(N)=O)Cc1ccc(O)cc1)NC(=O)[C@H]1CCC[C@@H]1NC(=O)[C@H]1CCC[C@@H]1N [H12 NY] | 364 µM
NC(=O)CC[C@@H](CC(=O)N[C@H]1CCC[C@@H]1C(=O)N[C@H]1CCC[C@@H]1C(=O)N[C@@H](CC(=O)O)CC(=O)N[C@H]1CCC[C@@H]1C(=O)N[C@H]1CCC[C@@H]1C(N)=O)NC(=O)[C@H]1CCC[C@@H]1NC(=O)[C@H]1CCC[C@@H]1N [H12 QD] | 433 µM
NC(=O)CC[C@@H](CC(=O)N[C@H]1CCC[C@@H]1C(=O)N[C@H]1CCC[C@@H]1C(=O)N[C@@H](CCC(=O)O)CC(=O)N[C@H]1CCC[C@@H]1C(=O)N[C@H]1CCC[C@@H]1C(N)=O)NC(=O)[C@H]1CCC[C@@H]1NC(=O)[C@H]1CCC[C@@H]1N [H12 QE] | 474 µM
CC[C@H](C)[C@@H](CC(=O)N[C@H]1CCC[C@@H]1C(=O)N[C@H]1CCC[C@@H]1C(N)=O)NC(=O)[C@H]1CCC[C@@H]1NC(=O)[C@H]1CCC[C@@H]1NC(=O)C[C@H](CCC(N)=O)NC(=O)[C@H]1CCC[C@@H]1NC(=O)[C@H]1CCC[C@@H]1N [H12 QI] | 263 µM
CC(C)C[C@@H](CC(=O)N[C@H]1CCC[C@@H]1C(=O)N[C@H]1CCC[C@@H]1C(N)=O)NC(=O)[C@H]1CCC[C@@H]1NC(=O)[C@H]1CCC[C@@H]1NC(=O)C[C@H](CCC(N)=O)NC(=O)[C@H]1CCC[C@@H]1NC(=O)[C@H]1CCC[C@@H]1N [H12 QL] | 263 µM
CSCC[C@@H](CC(=O)N[C@H]1CCC[C@@H]1C(=O)N[C@H]1CCC[C@@H]1C(N)=O)NC(=O)[C@H]1CCC[C@@H]1NC(=O)[C@H]1CCC[C@@H]1NC(=O)C[C@H](CCC(N)=O)NC(=O)[C@H]1CCC[C@@H]1NC(=O)[C@H]1CCC[C@@H]1N [H12 QM] | 364 µM
C[C@@H](O)[C@@H](CC(=O)N[C@H]1CCC[C@@H]1C(=O)N[C@H]1CCC[C@@H]1C(N)=O)NC(=O)[C@H]1CCC[C@@H]1NC(=O)[C@H]1CCC[C@@H]1NC(=O)C[C@H](CCC(N)=O)NC(=O)[C@H]1CCC[C@@H]1NC(=O)[C@H]1CCC[C@@H]1N [H12 QT] | 447 µM
NC(=O)CC[C@@H](CC(=O)N[C@H]1CCC[C@@H]1C(=O)N[C@H]1CCC[C@@H]1C(=O)N[C@H](CC(=O)N[C@H]1CCC[C@@H]1C(=O)N[C@H]1CCC[C@@H]1C(N)=O)Cc1ccc(O)cc1)NC(=O)[C@H]1CCC[C@@H]1NC(=O)[C@H]1CCC[C@@H]1N [H12 QY] | 403 µM
C[C@@H](CC(=O)N[C@H]1CCC[C@@H]1C(=O)N[C@H]1CCC[C@@H]1C(N)=O)NC(=O)[C@H]1CCC[C@@H]1NC(=O)[C@H]1CCC[C@@H]1NC(=O)C[C@H](CO)NC(=O)[C@H]1CCC[C@@H]1NC(=O)[C@H]1CCC[C@@H]1N [H12 SA] | 482 µM
NC(=O)[C@H]1CCC[C@@H]1NC(=O)[C@H]1CCC[C@@H]1NC(=O)C[C@H](CC(=O)O)NC(=O)[C@H]1CCC[C@@H]1NC(=O)[C@H]1CCC[C@@H]1NC(=O)C[C@H](CO)NC(=O)[C@H]1CCC[C@@H]1NC(=O)[C@H]1CCC[C@@H]1N [H12 SD] | 441 µM
CSCC[C@@H](CC(=O)N[C@H]1CCC[C@@H]1C(=O)N[C@H]1CCC[C@@H]1C(N)=O)NC(=O)[C@H]1CCC[C@@H]1NC(=O)[C@H]1CCC[C@@H]1NC(=O)C[C@H](CO)NC(=O)[C@H]1CCC[C@@H]1NC(=O)[C@H]1CCC[C@@H]1N [H12 SM] | 340 µM
NC(=O)C[C@@H](CC(=O)N[C@H]1CCC[C@@H]1C(=O)N[C@H]1CCC[C@@H]1C(N)=O)NC(=O)[C@H]1CCC[C@@H]1NC(=O)[C@H]1CCC[C@@H]1NC(=O)C[C@H](CO)NC(=O)[C@H]1CCC[C@@H]1NC(=O)[C@H]1CCC[C@@H]1N [H12 SN] | 493 µM
NC(=O)[C@H]1CCC[C@@H]1NC(=O)[C@H]1CCC[C@@H]1NC(=O)C[C@H](CO)NC(=O)[C@H]1CCC[C@@H]1NC(=O)[C@H]1CCC[C@@H]1NC(=O)C[C@H](CO)NC(=O)[C@H]1CCC[C@@H]1NC(=O)[C@H]1CCC[C@@H]1N [H12 SS] | 480 µM
CC(C)[C@@H](CC(=O)N[C@H]1CCC[C@@H]1C(=O)N[C@H]1CCC[C@@H]1C(N)=O)NC(=O)[C@H]1CCC[C@@H]1NC(=O)[C@H]1CCC[C@@H]1NC(=O)C[C@H](CO)NC(=O)[C@H]1CCC[C@@H]1NC(=O)[C@H]1CCC[C@@H]1N [H12 SV] | 299 µM
NC(=O)[C@H]1CCC[C@@H]1NC(=O)[C@H]1CCC[C@@H]1NC(=O)C[C@H](Cc1ccc(O)cc1)NC(=O)[C@H]1CCC[C@@H]1NC(=O)[C@H]1CCC[C@@H]1NC(=O)C[C@H](CO)NC(=O)[C@H]1CCC[C@@H]1NC(=O)[C@H]1CCC[C@@H]1N [H12 SY] | 351 µM
C[C@@H](CC(=O)N[C@H]1CCC[C@@H]1C(=O)N[C@H]1CCC[C@@H]1C(N)=O)NC(=O)[C@H]1CCC[C@@H]1NC(=O)[C@H]1CCC[C@@H]1NC(=O)C[C@@H](NC(=O)[C@H]1CCC[C@@H]1NC(=O)[C@H]1CCC[C@@H]1N)[C@@H](C)O [H12 TA] | 392 µM
CC[C@H](C)[C@@H](CC(=O)N[C@H]1CCC[C@@H]1C(=O)N[C@H]1CCC[C@@H]1C(N)=O)NC(=O)[C@H]1CCC[C@@H]1NC(=O)[C@H]1CCC[C@@H]1NC(=O)C[C@@H](NC(=O)[C@H]1CCC[C@@H]1NC(=O)[C@H]1CCC[C@@H]1N)[C@@H](C)O [H12 TI] | 110 µM
CC(C)C[C@@H](CC(=O)N[C@H]1CCC[C@@H]1C(=O)N[C@H]1CCC[C@@H]1C(N)=O)NC(=O)[C@H]1CCC[C@@H]1NC(=O)[C@H]1CCC[C@@H]1NC(=O)C[C@@H](NC(=O)[C@H]1CCC[C@@H]1NC(=O)[C@H]1CCC[C@@H]1N)[C@@H](C)O [H12 TL] | 110 µM
CSCC[C@@H](CC(=O)N[C@H]1CCC[C@@H]1C(=O)N[C@H]1CCC[C@@H]1C(N)=O)NC(=O)[C@H]1CCC[C@@H]1NC(=O)[C@H]1CCC[C@@H]1NC(=O)C[C@@H](NC(=O)[C@H]1CCC[C@@H]1NC(=O)[C@H]1CCC[C@@H]1N)[C@@H](C)O [H12 TM] | 200 µM
C[C@@H](O)[C@@H](CC(=O)N[C@H]1CCC[C@@H]1C(=O)N[C@H]1CCC[C@@H]1C(=O)N[C@@H](CCC(N)=O)CC(=O)N[C@H]1CCC[C@@H]1C(=O)N[C@H]1CCC[C@@H]1C(N)=O)NC(=O)[C@H]1CCC[C@@H]1NC(=O)[C@H]1CCC[C@@H]1N [H12 TQ] | 447 µM
CC(C)[C@@H](CC(=O)N[C@H]1CCC[C@@H]1C(=O)N[C@H]1CCC[C@@H]1C(N)=O)NC(=O)[C@H]1CCC[C@@H]1NC(=O)[C@H]1CCC[C@@H]1NC(=O)C[C@@H](NC(=O)[C@H]1CCC[C@@H]1NC(=O)[C@H]1CCC[C@@H]1N)[C@@H](C)O [H12 TV] | 208 µM
